Numbered stars: 1 amine (or outer) side, 2 acyl side, 3 side chain; on linkers, the order of the positions; unused ones are H or OH. Bridge positions count the residues as written; N and C are the ends. Square brackets hold non-standard residues; d marks the D form. Peptide text beside a SMILES is read from it. I, II: the chains in the order shown. Actinocin(9to1) = Cc1c2oc3c(C)ccc(C(=O)[*:1])c3nc-2c(C(=O)[*:2])c(N)c1=O; NMeV = CN[C@H](C(=O)O)C(C)C; Sar = CNCC(=O)O
Assays:
[1] = tested on: terminal deoxynucleotidyl transferase (TdT); assay: In vitro induction of TdT in fraction B bone marrow cells from NIH Swiss nu/nu mice; format: cell-based; conditions: for TdT induction relative to the thymosin fraction 5 level: BSA fraction B from bone marrow; for TdT specific activity: peak I activity only, incubation 18 hours with 50 ng/ml
Text: The method of Raidt et al., J. Exp. Med. 128, 681 (1968) was used to fractionate different cell suspensions from spleen, thymus, lymph nodes or bone marrow. Four layers of cells were formed at the interfaces of the discontinuous BSA gradient: Fraction A between 10% and 23% BSA; fraction B between 23-26%; fraction C between 26-29%; and fraction D between 29-33% BSA. BSA (Path-O-Cyte 5, lots 25 and 26) was obtained from Miles Research Products (Elkhart, Ind.). Fractionated cells were washed three times in Ham's F-12 medium.
(§1) The procedure for enzyme extraction has been described previously by Pazmino et al., J. Immunol. 119, 494 (1977).
(§2) The TdT assay was adapted from Kung et al, J. Exp. Med. 141, 855 (1975). One unit of enzyme activity was defined as the amount catalyzing the incorporation of 1 pmol of dGTP into acid insoluble material per hour. The specific activity was calculated from the total enzyme activity recovered from phosphocellulose per 10^8 nucleated viable cells.
Ten daily injections of 100 μg were given intraperitoneally to six-week-old NIH Swiss nu/nu, which were sacrificed 24 hours after the last injection. For the in vitro induction experiments, cells were washed three times after BSA gradient fractionation in Ham's F-12 medium containing 100 U/ml penicillin, 100 μg/ml streptomycin and 10 μg/ml gentomycin. After being washed, cell concentrations were adjusted to 1×10^8 cells/dish in 20 ml of Ham's F-12 medium containing antibiotics, 5% fetal bovine serum (Flow Laboratories, Rockville, Md.) and different concentrations of thymosin or spleen fraction 5 or of any of the different peptides isolated from thymosin. After incubation for various periods of time, cells were collected, washed twice with Ham's F-12 and extracted as previously described for TdT activity.
The following peptides, isolated from thymosin, were assayed for their ability to induce TdT in vitro: α1, β1, β3, β4, and synthetic α-1.
(§3) Actinomycin D at 0.5 μg/ml was incubated for 12 hours in the presence of thymosin with fraction B from the bone marrow of NIH Swiss nu/nu mice to study their effect on TdT induction. To follow the effect of Actinomycin D on RNA synthesis, cells were labeled with [^3 H] uridine (10 μCi/ml) for the last 90 minutes of incubation.

RNA synthesis = assay: Effect of Actinomycin D on RNA synthesis ([3H] uridine labeling) in fraction B bone marrow cells; format: cell-based, mice; conditions: 0.5 μg/ml, 12 hours, in the presence of thymosin
Protocol: as §3

[2] = tested on: TdT positive cells in T-cell populations; conditions: partially purified peptides; Low and Goldstein 1978; cited from earlier work
[3] = Isoelectric focusing (isoelectric point); format: physicochemical
Protocol: Isoelectric focusing was conducted for 90 minutes using a constant power of 25 watts (LKB Model 2103 power supply). The gels were fixed in 20% trichloroacetic acid for one hour. They were stained in 0.1% Coomassie Blue in 20% trichloroacetic acid and destained in 10% trichloroacetic acid.

[4] = tested on: terminal deoxynucleotidyl transferase (TdT); assay: In vivo TdT assay in thymocytes from hydrocortisone acetate treated C57BL/6J mice; conditions: for TdT specific activity: daily for 9 to 11 days, thymocytes
Protocol: as §1, §2
Thymosin activity was also tested by a in vivo TdT assay. Different doses of thymosin fraction 5 and other purified thymosin polypeptides were injected into hydrocortisone acetate treated C57BL/6J mice daily for 9 to 11 days. The animals were sacrificed, thymocytes prepared and TdT activity determined using the method described by Pazmino et al., J. Immunol. 119, 494 (1977). […]

[5] = FIG. 3, bone marrow fraction B cells

Compound | effect on induction of TdT by thymosin ([1]; 0.5 μg/ml actinomycin D, 12 hours, in the presence of thymosin) | inhibition of RNA synthesis (RNA synthesis) | shape of TdT dose response [1] | TdT induction relative to the thymosin fraction 5 level [1] [%] | concentration with significant TdT induction [1, 5] [ng/mL] | optimal concentration for TdT induction [1, 5] [ng/mL] | effect on TdT induction at higher concentrations ([1]; FIG. 3, β3 even at 500 ng/ml) | TdT specific activity [1] | induction of TdT positive cells in T-cell populations [2] | isoelectric point (pI) [3] | TdT specific activity ([4]; 1 μg/infection) | TdT specific activity ([4]; 10 μg/infection) | activity in inducing TdT in vivo compared with thymosin fraction 5 ([4]; One μg of β3 vs 100 μg of thymosin fraction 5)
Cc1c2oc3c(C)ccc(C(=O)N[C@@H]4C(=O)N[C@H](C(C)C)C(=O)N5CCC[C@H]5C(=O)N(C)CC(=O)N(C)[C@@H](C(C)C)C(=O)O[C@@H]4C)c3nc-2c(C(=O)N[C@@H]2C(=O)N[C@H](C(C)C)C(=O)N3CCC[C@H]3C(=O)N(C)CC(=O)N(C)[C@@H](C(C)C)C(=O)O[C@@H]2C)c(N)c1=O [actinomycin D, Actinomycin D, reference compound] (I: T[dV]P[Sar][NMeV] / II: T[dV]P[Sar][NMeV]; ester I:1-I:C, II:1-II:C; linker I:N-II:N via Actinocin(9to1)) | inhibited, as is the induction of TdT | greater than 95% |  |  |  |  |  |  |  |  |  |  | 
Thymosin β3 |  |  | increases as the doses increase | ~80 | 1 | 10 | no inhibition of induction was observed | 145.0 picomoles 3HdGTP/hour/10^8 cel | induce TdT positive cells | 5.2 | 2758.6 p moles (3HdGTP/30 min/10^8 ce | 2954.3 p moles (3HdGTP/30 min/10^8 ce | as active in inducing TdT in vivo as 100 μg of thymosin fraction 5
Thymosin β4 |  |  | increases as the doses increase | 30 |  |  |  | 58.0 picomoles 3HdGTP/hour/10^8 cel | induce TdT positive cells | 5.1 |  |  | 

Reference: US4297276A, “Thymosin beta 3 and beta 4” (Hoffman-La Roche Inc., priority 1980, dated 1981)
